In patent US20090221656A1, “Drug Combinations” (priority 2006, published 2009):

What was measured:
[1] = NA and DA tissue levels in heart and brain after administration of Compound 1; assay type: in vivo, mice and rats; settings: mouse and rat, in vivo; mice and rats; after administration
Text: (§1) Compound 1 ((R)-5-(2-aminoethyl)-1-(6,8-difluorochroman-3-yl)-1,3-dihydroimidazole-2-thione hydrochloride) is a new chemical entity that integrates a series of potent inhibitors of dopamine β-hydroxylase (DBH) that were designed and synthesised incorporating modifications to the core structure of nepicastat. The aim was to provide new DBH inhibitors exerting minimal effects on dopamine (DA) and noradrenaline (NA) levels in the brain. Compound 1 is in a fact a potent and peripherally-selective DBH inhibitor. […] Compound 1 is thus presented as a candidate for clinical evaluation for the treatment of chronic heart failure and hypertension. Compound 1, together with a series of related compounds, is described in WO 2004/033447.

[2] = system: dopamine β-hydroxylase (DBH); test: as above; assay type: in vivo, mice and rats
Text: as §1

[3] = mice and rats, at Tmax (9 h after administration)

Tmax [1]: 9 h
SMILES: Cl.NCCc1c[nH]c(=S)n1[C@H]1COc2c(F)cc(F)cc2C1 [Compound 1, (R)-5-(2-aminoethyl)-1-(6,8-difluorochroman-3-yl)-1,3-dihydroimidazole-2-thione hydrochloride]
DA tissue levels in brain ([2]; brain): failed to affect | NA tissue levels in brain ([2]; brain): failed to affect | NA levels in the left atrium [2, 3]: reduced NA levels in a dose-dependent manner | NA levels in the left ventricle [2, 3]: reduced NA levels in a dose-dependent manner | dose at which the maximal inhibitory effect on NA levels was attained ([2]; mice and rats, left atrium and left ventricle, 9 h after administration): 100 mg/kg
